Data reported in patent publication US10669240B2, “5-substituted indazole-3-carboxamides and preparation and use thereof” (Samumed, LLC, priority 2014, dated 2020).

Target: DYRK1A (Homo sapiens (Human), UniProt Q13627)
Assay: DYRK1A activity Tau assay: pSer396 Tau in SH-SY5Y cells by ELISA / western blot
Assay type: cell-based
Details: overnight (16-18 h) exposure

| SMILES | EC50 [nM] |
| --- | --- |
| O=C(NC1Cc2ccccc2C1)c1n[nH]c2ccc(-c3cccnc3)cc12 [Compound 22, N-(2,3-Dihydro-1H-inden-2-yl)-5-(pyridin-3-yl)-1H-indazole-3-carboxamide] | 52 |
| O=C(NC1CCCC1)c1n[nH]c2ccc(-c3cncc(N4CCCC4)c3)cc12 [Compound 181, N-Cyclopentyl-5-(5-(pyrrolidin-1-yl)pyridin-3-yl)-1H-indazole-3-carboxamide] | 47 |
| CN1CCC2(CC1)CC(NC(=O)c1n[nH]c3ccc(-c4cncc(F)c4)cc13)C2 [Compound 1277, 5-(5-Fluoropyridin-3-yl)-N-(7-methyl-7-azaspiro[3.5]nonan-2-yl)-1H-indazole-3-carboxamide] | 11 |
| O=C(NC1Cc2ccccc2C1)c1n[nH]c2ccc(-c3cncc(CN4CCCCC4)c3)cc12 [Compound 24, N-(2,3-Dihydro-1H-inden-2-yl)-5-(5-(piperidin-1-ylmethyl)pyridin-3-yl)-1H-indazole-3-carboxamide] | 15 |
| CC(C)CCN1CCC(NC(=O)c2n[nH]c3ccc(-c4cccnc4)cc23)CC1 [Compound 1316, N-(1-Isopentylpiperidin-4-yl)-5-(pyridin-3-yl)-1H-indazole-3-carboxamide] | 12 |
| O=C(Nc1ccc(C(F)(F)F)cn1)c1n[nH]c2ccc(-c3cncc(CN4CCCCC4)c3)cc12 [Compound 61, 5-(5-(Piperidin-1-ylmethyl)pyridin-3-yl)-N-(5-(trifluoromethyl)pyridin-2-yl)-1H-indazole-3-carboxamide] | 10 |
| CCN(CC)Cc1cncc(-c2ccc3[nH]nc(C(=O)NC(C)C)c3c2)c1 [Compound 1246, 5-(5-((Diethylamino)methyl)pyridin-3-yl)-N-isopropyl-1H-indazole-3-carboxamide] | 45 |
| CC[C@H](C)NC(=O)c1n[nH]c2ccc(-c3cccnc3)cc12 [Compound 1258, (S)—N-(sec-butyl)-5-(pyridin-3-yl)-1H-indazole-3-carboxamide] | 20 |
| CC(C)(C)NC(=O)c1n[nH]c2ccc(-c3cncc(N4CCCC4)c3)cc12 [Compound 1214, N-(tert-Butyl)-5-(5-(pyrrolidin-1-yl)pyridin-3-yl)-1H-indazole-3-carboxamide] | 419 |
| CC(C)CN1CCC(NC(=O)c2n[nH]c3ccc(-c4cncc(F)c4)cc23)CC1 [Compound 1306, 5-(5-Fluoropyridin-3-yl)-N-(1-isobutylpiperidin-4-yl)-1H-indazole-3-carboxamide] | 44 |
| CC(C)(F)CN1CCC(NC(=O)c2n[nH]c3ccc(-c4cncc(Cl)c4)cc23)CC1 [Compound 1311, 5-(5-Chloropyridin-3-yl)-N-(1-(2-fluoro-2-methylpropyl)piperidin-4-yl)-1H-indazole-3-carboxamide] | 30 |
| O=C(NC1CCCC1)c1n[nH]c2ccc(-c3cncc(F)c3)cc12 [Compound 1280, N-Cyclopentyl-5-(5-fluoropyridin-3-yl)-1H-indazole-3-carboxamide] | 32 |
| CN(C)Cc1ccc(NC(=O)c2n[nH]c3ccc(-c4cccc(F)c4F)cc23)cc1 [Compound 1325, 5-(2,3-Difluorophenyl)-N-(4-((dimethylamino)methyl)phenyl)-1H-indazole-3-carboxamide] | 54 |
| CC(C)NC(=O)c1n[nH]c2ccc(-c3cncnc3)cc12 [Compound 1248, N-Isopropyl-5-(pyrimidin-5-yl)-1H-indazole-3-carboxamide] | 174 |
| CCN1CCC(NC(=O)c2n[nH]c3ccc(-c4cncc(Cl)c4)cc23)CC1 [Compound 1291, 5-(5-Chloropyridin-3-yl)-N-(1-ethylpiperidin-4-yl)-1H-indazole-3-carboxamide] | 39 |
| CC[C@@H](C)NC(=O)c1n[nH]c2ccc(-c3cccnc3)cc12 [Compound 1257, (R)—N-(sec-butyl)-5-(pyridin-3-yl)-1H-indazole-3-carboxamide] | 14 |
| O=C(NC1CCN(Cc2ccccc2)CC1)c1n[nH]c2ccc(-c3cccnc3)cc12 [Compound 1152, N-(1-Benzylpiperidin-4-yl)-5-(pyridin-3-yl)-1H-indazole-3-carboxamide] | 3 |
| O=C(NC1CC1)c1n[nH]c2ccc(-c3cncc(N4CCCC4)c3)cc12 [Compound 143, N-Cyclopropyl-5-(5-(pyrrolidin-1-yl)pyridin-3-yl)-1H-indazole-3-carboxamide] | 10 |
| CN1CCC(NC(=O)c2n[nH]c3ccc(-c4ccc(C(F)(F)F)nc4)cc23)CC1 [Compound 94, N-(1-Methylpiperidin-4-yl)-5-(6-(trifluoromethyl)pyridin-3-yl)-1H-indazole-3-carboxamide] | > 10000 |
| CCN(CC)Cc1cncc(-c2ccc3[nH]nc(C(=O)NC4CC4)c3c2)c1 [Compound 1270, N-Cyclopropyl-5-(5-((diethylamino)methyl)pyridin-3-yl)-1H-indazole-3-carboxamide] | 7 |
| O=C(Nc1ccc(F)cn1)c1n[nH]c2ccc(-c3cncc(CN4CCCCC4)c3)cc12 [Compound 57, N-(5-Fluoropyridin-2-yl)-5-(5-(piperidin-1-ylmethyl)pyridin-3-yl)-1H-indazole-3-carboxamide] | 2 |
| O=C(NCCN1CCCC1)c1n[nH]c2ccc(-c3cccnc3)cc12 [Compound 1195, 5-(Pyridin-3-yl)-N-(2-(pyrrolidin-1-yl)ethyl)-1H-indazole-3-carboxamide] | 4 |
| O=C(Nc1cc(C(F)(F)F)ccn1)c1n[nH]c2ccc(-c3cncc(CN4CCCCC4)c3)cc12 [Compound 60, 5-(5-(Piperidin-1-ylmethyl)pyridin-3-yl)-N-(4-(trifluoromethyl)pyridin-2-yl)-1H-indazole-3-carboxamide] | 20 |
| O=C(Nc1ncccc1C(F)(F)F)c1n[nH]c2ccc(-c3cncc(CN4CCCCC4)c3)cc12 [Compound 59, 5-(5-(Piperidin-1-ylmethyl)pyridin-3-yl)-N-(3-(trifluoromethyl)pyridin-2-yl)-1H-indazole-3-carboxamide] | 13 |
| O=C(Nc1ncc(F)cc1F)c1n[nH]c2ccc(-c3cccnc3)cc12 [Compound 46, N-(3,5-Difluoropyridin-2-yl)-5-(pyridin-3-yl)-1H-indazole-3-carboxamide] | 4 |
| CC(F)(F)CN1CCC(NC(=O)c2n[nH]c3ccc(-c4cncc(Cl)c4)cc23)CC1 [Compound 1302, 5-(5-Chloropyridin-3-yl)-N-(1-(2,2-difluoropropyl)piperidin-4-yl)-1H-indazole-3-carboxamide] | 31 |
| O=C(NC1CCCC1)c1n[nH]c2ccc(-c3cncc(Cl)c3)cc12 [Compound 1279, 5-(5-Chloropyridin-3-yl)-N-cyclopentyl-1H-indazole-3-carboxamide] | 98 |
| CC(C)CN1CCC(NC(=O)c2n[nH]c3cc(F)c(-c4cccnc4)cc23)CC1 [Compound 1308, 6-Fluoro-N-(1-isobutylpiperidin-4-yl)-5-(pyridin-3-yl)-1H-indazole-3-carboxamide] | 17 |
| [2H]C([2H])(c1cncc(-c2ccc3[nH]nc(C(=O)Nc4cccnc4)c3c2)c1)N1CCCCC1 [Compound 63, 5-(5-(piperidin-1-ylmethyl-d2)pyridin-3-yl)-N-(pyridin-3-yl)-1H-indazole-3-carboxamide] | 1 |
| O=C(Nc1ccc(CN2CCCC2)cc1)c1n[nH]c2cc(F)c(-c3cccnc3)cc12 [Compound 1345, 6-Fluoro-5-(pyridin-3-yl)-N-(4-(pyrrolidin-1-ylmethyl)phenyl)-1H-indazole-3-carboxamide] | 22 |
